This passage reports inhibition results from patent publication US4528020A, “Urease inhibited urea based fertilizer compositions” (Allied Corporation, priority 1983, dated 1985).

The assay concerns the target jack bean urease (Canavalia ensiformis, UniProt P07374). The assay can be described thus: Urease inhibition in solution (modified Bremner procedure, purified jack bean urease in aqueous solution). In kind it is biochemical. Conditions: commercial purified jack bean urease. The protocol:
Efficacy tests were conducted with jack bean urease. The procedure of Bremner (See. L. A. Douglas, J. M. Bremner, Soil Biology Biochem., 3, 859-859 (1970), and references cited therein was modified by replacing the soil as the source of urease with commercial purified jack bean urease. The incubation then proceeds in aqueous solution. The results are set forth in the following Table I.

Chain of jack bean urease (P07374 whole entry, looked up): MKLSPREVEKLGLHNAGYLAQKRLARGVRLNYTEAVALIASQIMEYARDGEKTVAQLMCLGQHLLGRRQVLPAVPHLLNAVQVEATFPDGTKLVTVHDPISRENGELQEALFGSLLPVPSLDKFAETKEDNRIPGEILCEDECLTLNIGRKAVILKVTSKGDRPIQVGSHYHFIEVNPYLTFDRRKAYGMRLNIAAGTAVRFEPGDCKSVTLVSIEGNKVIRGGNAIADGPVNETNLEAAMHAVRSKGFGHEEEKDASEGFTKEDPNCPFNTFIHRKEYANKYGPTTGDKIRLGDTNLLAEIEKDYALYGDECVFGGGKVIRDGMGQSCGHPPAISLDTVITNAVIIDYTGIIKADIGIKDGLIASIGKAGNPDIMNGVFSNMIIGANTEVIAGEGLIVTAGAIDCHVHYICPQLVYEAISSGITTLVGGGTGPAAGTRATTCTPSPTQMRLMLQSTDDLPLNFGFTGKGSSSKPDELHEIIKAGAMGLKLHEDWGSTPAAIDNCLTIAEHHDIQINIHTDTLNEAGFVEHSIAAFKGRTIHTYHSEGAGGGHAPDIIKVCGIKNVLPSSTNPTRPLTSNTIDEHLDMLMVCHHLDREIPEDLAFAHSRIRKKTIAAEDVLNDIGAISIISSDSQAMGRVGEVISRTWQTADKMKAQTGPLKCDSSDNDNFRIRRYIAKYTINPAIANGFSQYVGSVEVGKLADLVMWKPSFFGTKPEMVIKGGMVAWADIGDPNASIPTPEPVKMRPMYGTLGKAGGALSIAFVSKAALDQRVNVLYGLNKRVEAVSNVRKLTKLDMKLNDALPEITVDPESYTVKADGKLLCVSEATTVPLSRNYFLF

As for `NP(N)(=O)NC(=O)c1ccc(N2C(=O)C=CC2=O)cc1` [N-(diaminophosphinyl)-4-(1'-maleimido)benzamide], where the note is “compound at 10^-6 M, read-out: % Inhibition at Specific Concentration 10^-6 M”, the inhibition at 1 µM turned out to be 59%. The inhibition at 0.1 µM (compound at 10^-7 M, read-out: % Inhibition at Specific Concentration 10^-7 M) came out at 8%.
